Data: ChEMBL document CHEMBL4043067, “Synthesis and cytotoxic activities of goniothalamins and derivatives” (Bioorg Med Chem, 2017)
pIC50: −log10 of the molar value.

Key:
A549 = test: Antiproliferative activity against human A549 cells after 48 hrs by CellTiter-Glo luminescent cell viability assay; format: functional, cell-based; conditions: A549, 48 h
MCF7 = test: Antiproliferative activity against human MCF7 cells after 48 hrs by CellTiter-Glo luminescent cell viability assay; format: functional, cell-based; conditions: MCF7, 48 h
HBL-100 = test: Antiproliferative activity against human HBL100 cells after 48 hrs by CellTiter-Glo luminescent cell viability assay; format: functional, cell-based; conditions: HBL-100, 48 h
Saccharomyces cerevisiae [1] = test: Cytotoxicity against Saccharomyces cerevisiae YRE1001 up to 100 ug/ml after 48 hrs by liquid drug assay
Saccharomyces cerevisiae [2] = test: Inhibition of Pdr5 ATPase activity in Saccharomyces cerevisiae YRE1001 plasma membranes assessed as residual activity at 500 ug/ml after 20 mins in presence of ATP by colorimetric assay relative to control
Saccharomyces cerevisiae [3] = test: Inhibition of Pdr5 ATPase activity in Saccharomyces cerevisiae YRE1001 plasma membranes assessed as residual activity at 50 ug/ml after 20 mins in presence of ATP by colorimetric assay relative to control
Saccharomyces cerevisiae [4] = test: Inhibition of Pdr5 ATPase activity in Saccharomyces cerevisiae YRE1001 plasma membranes assessed as residual activity at 5 ug/ml after 20 mins in presence of ATP by colorimetric assay relative to control
Saccharomyces cerevisiae [5] = test: Inhibition of Pdr5 in Saccharomyces cerevisiae YRE1001 plasma membranes assessed as reduction in rhodamine 6G transport by measuring relative fluorescence intensity at 500 ug/ml preincubated with enzyme followed by ATP addition measured for 20 mins by fluorescence assay relative to control; design: scale not given: the % may be the effect or the level left
Saccharomyces cerevisiae [6] = test: Inhibition of Pdr5 in Saccharomyces cerevisiae YRE1001 plasma membranes assessed as reduction in rhodamine 6G transport by measuring relative fluorescence intensity at 50 ug/ml preincubated with enzyme followed by ATP addition measured for 20 mins by fluorescence assay relative to control; design: scale not given: the % may be the effect or the level left
Saccharomyces cerevisiae [7] = test: Inhibition of Pdr5 in Saccharomyces cerevisiae YRE1001 plasma membranes assessed as reduction in rhodamine 6G transport by measuring relative fluorescence intensity at 5 ug/ml preincubated with enzyme followed by ATP addition measured for 20 mins by fluorescence assay relative to control; design: scale not given: the % may be the effect or the level left
Saccharomyces cerevisiae [8] = test: Inhibition of Pdr5 ATPase activity in Saccharomyces cerevisiae YRE1001 plasma membranes assessed as residual activity at 250 ug/ml after 20 mins in presence of ATP by colorimetric assay relative to control
Saccharomyces cerevisiae [9] = test: Inhibition of Pdr5 ATPase activity in Saccharomyces cerevisiae YRE1001 plasma membranes assessed as residual activity at 125 ug/ml after 20 mins in presence of ATP by colorimetric assay relative to control
Saccharomyces cerevisiae [10] = test: Inhibition of Pdr5 ATPase activity in Saccharomyces cerevisiae YRE1001 plasma membranes assessed as residual activity at 13 ug/ml after 20 mins in presence of ATP by colorimetric assay relative to control
Saccharomyces cerevisiae [11] = test: Inhibition of Pdr5 in Saccharomyces cerevisiae YRE1001 plasma membranes assessed as reduction in rhodamine 6G transport by measuring relative fluorescence intensity at 125 ug/ml preincubated with enzyme followed by ATP addition measured for 20 mins by fluorescence assay relative to control; design: scale not given: the % may be the effect or the level left
Saccharomyces cerevisiae [12] = test: Inhibition of Pdr5 in Saccharomyces cerevisiae YRE1001 plasma membranes assessed as reduction in rhodamine 6G transport by measuring relative fluorescence intensity at 13 ug/ml preincubated with enzyme followed by ATP addition measured for 20 mins by fluorescence assay relative to control; design: scale not given: the % may be the effect or the level left

Row | Compound | pIC50 (A549) | pIC50 (MCF7) | pIC50 (HBL-100) | Activity (Saccharomyces cerevisiae [1]) | Activity (Saccharomyces cerevisiae [2]) [%] | Activity (Saccharomyces cerevisiae [3]) [%] | Activity (Saccharomyces cerevisiae [4]) [%] | Activity (Saccharomyces cerevisiae [5]) [%] | Activity (Saccharomyces cerevisiae [6]) [%] | Activity (Saccharomyces cerevisiae [7]) [%] | Activity (Saccharomyces cerevisiae [8]) [%] | Activity (Saccharomyces cerevisiae [9]) [%] | Activity (Saccharomyces cerevisiae [10]) [%] | Activity (Saccharomyces cerevisiae [11]) [%] | Activity (Saccharomyces cerevisiae [12]) [%]
1 | O=C1CCC[C@H]([C@@H]2C[C@H]2c2ccccc2)O1 | < 4.00 | < 4.00 | < 4.00 | Toxic | – | – | – | – | – | – | – | – | – | – | –
2 | COc1ccc(/C=C/[C@H]2CC=CC(=O)O2)cc1 | < 4.00 | < 4.00 | < 4.00 | Non-Toxic | 0 | 8.7 | 25.7 | 0 | 4 | 44 | – | – | – | – | –
3 | O=C1C=CC[C@H](/C=C/c2ccc(F)cc2)O1 | 4.99 | 4.12 | 4.85 | Toxic | – | – | – | – | – | – | – | – | – | – | –
4 | O=C1C=CC[C@@H](/C=C/C2CCCCC2)O1 | 4.16 | < 4.00 | 4.32 | Toxic | 53 | 74.7 | 88 | 0 | 37 | 86 | – | – | – | – | –
5 | O=C1C=CC[C@@H](/C=C/c2ccccc2)O1 | 4.15 | < 4.00 | < 4.00 | Toxic | – | – | – | – | – | – | – | – | – | – | –
6 | C[C@H](Cc1ccccc1)[C@H]1CCCC(=O)O1 | < 4.00 | < 4.00 | < 4.00 | Toxic | – | – | – | – | – | – | – | – | – | – | –
7 | O=C1CCC[C@H]([C@H]2C[C@@H]2c2ccccc2)O1 | < 4.00 | < 4.00 | < 4.00 | Toxic | – | – | – | – | – | – | – | – | – | – | –
8 | COc1ccc(/C=C/[C@@H]2CC=CC(=O)O2)cc1 | < 4.00 | 4.05 | < 4.00 | Toxic | – | – | – | – | – | – | – | – | – | – | –
9 | O=C1C=CC[C@H](/C=C/c2ccccc2)O1 [GONIOTHALAMIN] | 5.24 | 4.26 | 4.68 | Toxic | 24.3 | 30 | 71.7 | -2 | 10 | 60 | – | – | – | – | –
10 | O=C1CCC[C@@H]([C@H]2C[C@@H]2c2ccccc2)O1 | < 4.00 | < 4.00 | < 4.00 | Toxic | – | – | – | – | – | – | – | – | – | – | –
11 | O=C1C=CC[C@H](/C=C/c2ccc([N+](=O)[O-])cc2)O1 | 4.81 | 4.54 | 5.17 | Toxic | – | – | – | – | – | – | 50 | 51 | 79.3 | 21 | 54
12 | O=C1C=CC[C@H](/C=C/C2CCCCC2)O1 | 4.51 | < 4.00 | 4.54 | Toxic | 56 | 79 | 98 | -8 | 18 | 91 | – | – | – | – | –
13 | O=C1C=CC[C@@H]([C@H]2C[C@@H]2c2ccccc2)O1 | 4.82 | 4.17 | 4.46 | Toxic | – | – | – | – | – | – | – | – | – | – | –
14 | O=C1C=CC[C@H]([C@H]2C[C@@H]2c2ccccc2)O1 | 4.94 | 4.32 | 4.84 | Toxic | – | – | – | – | – | – | – | – | – | – | –
15 | O=C1C=CC[C@@H](/C=C/c2ccc([N+](=O)[O-])cc2)O1 | < 4.00 | < 4.00 | < 4.00 | Toxic | – | – | – | – | – | – | – | – | – | – | –
16 | O=C1C=CC[C@H]([C@@H]2C[C@H]2c2ccccc2)O1 | 4.20 | < 4.00 | 4.36 | Toxic | – | – | – | – | – | – | – | – | – | – | –
17 | O=C1C=CC[C@@H](/C=C/c2ccc(F)cc2)O1 | < 4.00 | < 4.00 | < 4.00 | Toxic | 26.3 | 40.7 | 71 | 10 | 75 | 99 | – | – | – | – | –
18 | O=C1C=CCC(/C=C/c2ccccc2)O1 (racemic) | 4.46 | < 4.00 | 4.65 | Toxic | – | – | – | – | – | – | – | – | – | – | –
19 | C[C@@H](Cc1ccccc1)[C@H]1CCCC(=O)O1 | < 4.00 | < 4.00 | < 4.00 | Toxic | – | – | – | – | – | – | – | – | – | – | –
